Tested on: NOMO1
Assay: cell viability relative to DMSO control; higher = less cytotoxic
Conditions: 48 h
Outline: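 NOMO1 or SEM cells were plated at 500 cells/well and P12-Ichikawa cells at 1000 cells/well in 1536-well plates (5 μl), after each leukemia line had been adapted for at least four passages in each medium. Pin dosing delivered library compounds in DMSO at 11 threefold concentrations, 47 μM to 0.79 nM. CellTiter-Glo One luminescence was read after 48 h at 37°C. Viability is reported as a per-plate percentage of DMSO wells, with cell-free wells as background.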

[1] = HPLM + 10% dialyzed FBS, 0.000781 µM
[2] = HPLM + 10% dialyzed FBS, 0.00234 µM
[3] = HPLM + 10% dialyzed FBS, 0.00702 µM
[4] = HPLM + 10% dialyzed FBS, 0.0211 µM
[5] = HPLM + 10% dialyzed FBS, 0.0632 µM
[6] = HPLM + 10% dialyzed FBS, 0.19 µM
[7] = HPLM + 10% dialyzed FBS, 0.569 µM
[8] = HPLM + 10% dialyzed FBS, 1.71 µM
[9] = HPLM + 10% dialyzed FBS, 5.12 µM
[10] = HPLM + 10% dialyzed FBS, 15.4 µM
[11] = HPLM + 10% dialyzed FBS, 46.1 µM
[12] = RPMI 5 mM glucose + 10% FBS, 0.000781 µM
[13] = RPMI 5 mM glucose + 10% FBS, 0.00234 µM
[14] = RPMI 5 mM glucose + 10% FBS, 0.00702 µM
[15] = RPMI 5 mM glucose + 10% FBS, 0.0211 µM
[16] = RPMI 5 mM glucose + 10% FBS, 0.0632 µM
[17] = RPMI 5 mM glucose + 10% FBS, 0.19 µM
[18] = RPMI 5 mM glucose + 10% FBS, 0.569 µM
[19] = RPMI 5 mM glucose + 10% FBS, 1.71 µM
[20] = RPMI 5 mM glucose + 10% FBS, 5.12 µM
[21] = RPMI 5 mM glucose + 10% FBS, 15.4 µM
[22] = RPMI 5 mM glucose + 10% FBS, 46.1 µM
[23] = RPMI 5 mM glucose + 10% dialyzed FBS, 0.000781 µM
[24] = RPMI 5 mM glucose + 10% dialyzed FBS, 0.00234 µM
[25] = RPMI 5 mM glucose + 10% dialyzed FBS, 0.00702 µM
[26] = RPMI 5 mM glucose + 10% dialyzed FBS, 0.0211 µM
[27] = RPMI 5 mM glucose + 10% dialyzed FBS, 0.0632 µM
[28] = RPMI 5 mM glucose + 10% dialyzed FBS, 0.19 µM
[29] = RPMI 5 mM glucose + 10% dialyzed FBS, 0.569 µM
[30] = RPMI 5 mM glucose + 10% dialyzed FBS, 1.71 µM
[31] = RPMI 5 mM glucose + 10% dialyzed FBS, 5.12 µM
[32] = RPMI 5 mM glucose + 10% dialyzed FBS, 15.4 µM
[33] = RPMI 5 mM glucose + 10% dialyzed FBS, 46.1 µM

Row | Structure (SMILES) | cell viability [1] [%] | cell viability [2] [%] | cell viability [3] [%] | cell viability [4] [%] | cell viability [5] [%] | cell viability [6] [%] | cell viability [7] [%] | cell viability [8] [%] | cell viability [9] [%] | cell viability [10] [%] | cell viability [11] [%] | cell viability [12] [%] | cell viability [13] [%] | cell viability [14] [%] | cell viability [15] [%] | cell viability [16] [%] | cell viability [17] [%] | cell viability [18] [%] | cell viability [19] [%] | cell viability [20] [%] | cell viability [21] [%] | cell viability [22] [%] | cell viability [23] [%] | cell viability [24] [%] | cell viability [25] [%] | cell viability [26] [%] | cell viability [27] [%] | cell viability [28] [%] | cell viability [29] [%] | cell viability [30] [%] | cell viability [31] [%] | cell viability [32] [%] | cell viability [33] [%]
1 | CN1CCN(CC1)C/2=N/C3=CC=CC=C3NC4=C2C=C(C)S4 | 94.5 | 101 | 102 | 109 | 110 | 96.1 | 93.5 | 86.3 | 86.6 | 75.5 | 77.1 | 89.8 | 85.5 | 80.5 | 88.5 | 100 | 82.4 | 96.7 | 83.9 | 86.1 | 82 | 97.1 | 86.1 | 72.9 | 78.6 | 85 | 88.9 | 86.9 | 99.3 | 89.4 | 76.2 | 69.7 | 81.2
2 | N[C@@H](Cc1cc(I)c(Oc2cc(I)c(O)c(I)c2)c(I)c1)C(=O)O | 119 | 109 | 105 | 103 | 111 | 109 | 125 | 94.5 | 112 | 104 | 97.4 | 92.9 | 105 | 107 | 100 | 101 | 97 | 108 | 105 | 93.6 | 112 | 84.8 | 109 | 116 | 113 | 113 | 94.1 | 95.5 | 96.9 | 98.9 | 94 | 96.8 | 92.6
3 | CNC(=O)c1cc(COc2nnc(Nc3ccc(Cl)cc3)c3ccoc23)ccn1 | 110 | 110 | 107 | 103 | 114 | 131 | 114 | 107 | 98.2 | 91.1 | 65.7 | 114 | 123 | 106 | 112 | 110 | 111 | 109 | 104 | 92.6 | 87.4 | 87.5 | 104 | 111 | 107 | 101 | 109 | 102 | 92.7 | 96.4 | 98.6 | 101 | 87.3
4 | Cc1ccc(Nc2nccc(N(C)c3ccc4c(C)n(C)nc4c3)n2)cc1[S+](N)(=O)[O-] | 107 | 118 | 102 | 112 | 121 | 129 | 126 | 112 | 132 | 112 | 50.9 | 93.9 | 101 | 92.1 | 103 | 99.5 | 101 | 107 | 114 | 105 | 100 | 50.3 | 95.8 | 92.1 | 102 | 85.4 | 104 | 112 | 105 | 123 | 110 | 97.2 | 71.1
5 | COc1c(C)c2c(c(O)c1C/C=C(\C)CCC(=O)OCCN1CCOCC1)C(=O)OC2 | 90.3 | 91.9 | 110 | 122 | 112 | 99.8 | 107 | 86.3 | 60.5 | 43.9 | 31.9 | 98.5 | 108 | 98 | 92.7 | 95 | 110 | 107 | 122 | 62.9 | 38.8 | 33.6 | 102 | 108 | 102 | 111 | 104 | 115 | 98.9 | 89 | 64.7 | 49.5 | 42.2
6 | OCCN1CCN(CCCN2c3ccccc3Sc3ccc(C(F)(F)F)cc32)CC1 | 123 | 121 | 107 | 122 | 111 | 106 | 98.8 | 122 | 73.2 | 43 | 27.7 | 104 | 104 | 100 | 121 | 97.5 | 110 | 112 | 105 | 104 | 25.7 | 21.3 | 91.6 | 102 | 108 | 105 | 105 | 109 | 110 | 97.3 | 109 | 93.9 | 24.8
7 | CNC(=O)c1cc(Oc2ccc(NC(=O)Nc3ccc(Cl)c(C(F)(F)F)c3)c(F)c2)ccn1 | 81.7 | 96.4 | 112 | 107 | 105 | 104 | 109 | 105 | 73.6 | 77.1 | 70.6 | 86.5 | 103 | 94.8 | 108 | 97.1 | 94.3 | 95.6 | 86.2 | 85.4 | 83.4 | 69.7 | 88 | 94.8 | 89.8 | 92.4 | 98.5 | 109 | 104 | 97.9 | 80.3 | 82.2 | 73.6
8 | O=C(O)c1nn(Cc2ccc(Cl)cc2Cl)c2ccccc12 | 112 | 116 | 106 | 100 | 78.3 | 83.8 | 71.2 | 61.8 | 92.3 | 76.5 | 69.9 | 86.1 | 76.6 | 78.1 | 83.8 | 96.7 | 81.7 | 75.5 | 83.8 | 85.4 | 79.5 | 74 | 79.9 | 89.7 | 97.4 | 94.2 | 91.1 | 85.6 | 73.8 | 75.3 | 83.2 | 81.2 | 76.1
9 | CC(=O)O[C@@]12CO[C@@H]1C[C@H](O)[C@]3(C)[C@@H]2[C@H](OC(=O)C4=CC=CC=C4)[C@]5(O)C[C@H](O)/C(=C(/[C@@H](O)C3=O)C5(C)C)C | 109 | 133 | 123 | 122 | 130 | 131 | 114 | 121 | 117 | 36.1 | 29.1 | 98.1 | 112 | 111 | 116 | 118 | 108 | 105 | 113 | 109 | 51.8 | 13.3 | 89.8 | 92.8 | 106 | 121 | 113 | 114 | 106 | 111 | 115 | 45.1 | 19.3
10 | CCNC(=O)c1noc(-c2cc(C(C)C)c(O)cc2O)c1-c1ccc(CN2CCOCC2)cc1 | 91.6 | 98.5 | 109 | 121 | 76.2 | 19.2 | 24.1 | 20 | 20.9 | 19.3 | 21.2 | 119 | 108 | 123 | 116 | 92.6 | 13.5 | 13.7 | 15.4 | 16 | 16 | 19.3 | 107 | 128 | 114 | 131 | 96.4 | 18.9 | 17.3 | 20.3 | 17.4 | 19.5 | 22.4
11 | Cc1ccc([S+](=O)([O-])NC(=O)NN2CC3CCCC3C2)cc1 (centres undefined) | 108 | 127 | 114 | 104 | 134 | 113 | 96.6 | 104 | 111 | 53.4 | 30.3 | 98 | 104 | 105 | 104 | 106 | 99.5 | 113 | 102 | 108 | 55.6 | 24.1 | 96.4 | 118 | 101 | 105 | 106 | 110 | 103 | 106 | 110 | 57.3 | 36
12 | Cc1ccnc(N[S+](=O)([O-])c2ccc(NC(=O)Nc3ccc([S+](=O)([O-])Nc4nccc(C)n4)cc3)cc2)n1 | 100 | 99.6 | 99.3 | 101 | 107 | 20.8 | 37.1 | 7.33 | 6.39 | 4.89 | 2.2 | 97.6 | 83.9 | 83.5 | 90.1 | 86.6 | 36 | 53.1 | 7.07 | 5.88 | 4.91 | 2.42 | 79.3 | 77.8 | 88 | 85.2 | 86.5 | 46.8 | 56 | 6.77 | 5.66 | 4.24 | 2.51
13 | O=C(c1ccc(C(=O)N2CCC(N3CCCC3)CC2)c(Nc2ccccc2)c1)N1CCC(N2CCCC2)CC1 | 98.6 | 110 | 104 | 103 | 105 | 111 | 112 | 104 | 102 | 113 | 112 | 85.6 | 98.2 | 90.3 | 95 | 106 | 91.7 | 82.3 | 94.3 | 99.7 | 92.6 | 107 | 101 | 110 | 111 | 98.6 | 98.2 | 104 | 101 | 109 | 96.7 | 96.3 | 97.3
14 | CN(C)[C@H]\1[C@@H]2[C@@H](O)[C@H]3\C(=C(O)/[C@]2(O)C(=O)\C(=C1O)C(N)=O)C(=O)C4=C(C=CC=C4O)[C@@]3(C)O | 134 | 117 | 117 | 138 | 127 | 131 | 130 | 108 | 113 | 104 | 30.7 | 112 | 131 | 120 | 135 | 123 | 126 | 122 | 117 | 113 | 119 | 37.1 | 117 | 128 | 117 | 122 | 119 | 128 | 123 | 136 | 105 | 104 | 30.1
15 | COc1ccccc1N1CCN(CC(O)COc2cccc3ccccc23)CC1 (centres undefined) | – | – | – | – | – | – | – | – | – | – | – | 115 | 131 | 122 | 133 | 132 | 143 | 116 | 115 | 113 | 107 | 23.6 | – | – | – | – | – | – | – | – | – | – | –
16 | COc1ccc2c(c1)CC[C@@H](CN(C)CC(=O)O)[C@H]2c1ccccc1 | – | – | – | – | – | – | – | – | – | – | – | – | – | – | – | – | – | – | – | – | – | – | 120 | 125 | 125 | 101 | 127 | 130 | 125 | 123 | 85.2 | 29.8 | 36.6
